The source made the active and inactive calls. The calls are words filed in the database; no cut-off is given here.
What was measured:
[1] = target: Mu-type opioid receptor (Rattus norvegicus) (UniProt P33535); experiment: Ratio of potencies of (+) and (-) enantiomers against Mu receptors in Rats
[2] = target: Mu-type opioid receptor (Homo sapiens) (UniProt P35372); experiment: Ratio of potencies of (+) and (-) enantiomers against Mu receptors in monkeys; details: Cercopithecidae; target entry is the homologue from another species
Mus musculus [3] = experiment: In vivo for its narcotic antagonistic activity of the antinociceptive effect in mouse; assay type: functional, organism-based
[4] = target: T1, Glutamate NMDA receptor (Rattus norvegicus) (UniProt P35439+Q00959+Q00960+Q00961+Q62645+Q8VHN2+Q9R1M7); experiment: Ratio of potencies against PCP receptor to that of Mu receptor of rat; assay type: protein-complex assay
Cercopithecidae = experiment: Ratio of potencies against Mu receptor of monkey to that of rat
Cavia porcellus [5] = organism: Cavia porcellus; experiment: Ratio of potencies against sigma receptor to that of Mu receptor of rat
[6] = target: Kappa-type opioid receptor (Homo sapiens) (UniProt P41145); experiment: Ratio of potencies of (+) and (-) enantiomers against kappa receptors in monkeys; details: Cercopithecidae; target entry is the homologue from another species
Glutamate NMDA receptor = experiment: Inhibition using [3H]TCP in homogenate of rat brain; assay type: tissue-based
Cavia porcellus [7] = organism: Cavia porcellus; experiment: Ratio of potencies against PCP receptor to that of sigma receptor
[8] = target: Mu-type opioid receptor (Homo sapiens) (UniProt P35372); experiment: Ratio of potencies against Mu receptor to that of kappa receptor of monkey; details: Cercopithecidae; target entry is the homologue from another species
Mus musculus [9] = experiment: In vivo antinociceptive activity was tested through injecting 2 mg/kg ip phenylquinone, activity calculated by total number of abdominal-stretches; assay type: functional, Abdomen; details: route intraperitoneal
Mu-type opioid receptor = Mu-type opioid receptor (Rattus norvegicus, UniProt P33535); experiment: Inhibition against mu receptor using [3H]DAMGO in homogenate of rat brain cerebellum; assay type: tissue-based
Mus musculus [10] = experiment: (§1) In vivo antinociceptive activity was tested through tail flick (TF) with this compound in mouse; assay type: functional; set-up: unit not given beside the values
[11] = target: T1, Glutamate NMDA receptor (Rattus norvegicus); experiment: Ratio of potencies of (+) and (-) enantiomers against PCP in rats
Mus musculus [12] = experiment: In vivo antinociceptive activity through hot plate (HP) by placing mouse on hot plate, and calculating number of times it jumps or licks its paw in 5 seconds; assay type: functional
Mus musculus [13] = experiment: In vivo antinociceptive activity was tested through tail flick (TF) with this compound in mouse at 30 mg/kg concentration; assay type: functional
Mus musculus [14] = experiment: In vivo antinociceptive activity was tested through hot plate (HP) and counting jumps or paw licks; assay type: functional, organism-based
Mus musculus [15] = experiment: as §1; assay type: functional, organism-based
Mus musculus [16] = experiment: In vivo antinociceptive activity at 20 mg/kg was tested through injecting 2 mg/kg ip phenylquinone, activity calculated by total number of abdominal-stretches per group counted over a 1 min period; assay type: functional
Mus musculus [17] = experiment: In vivo antinociceptive activity at 30 mg/kg was tested through hot plate (HP) by placing mouse on hot plate, and calculating number of times it jumps or licks its paw in 5 seconds; assay type: functional
Mus musculus [18] = experiment: In vivo antinociceptive activity at 30 mg/kg was tested through injecting 2 mg/kg ip phenylquinone, activity calculated by total number of abdominal-stretches per group counted over a 1 min period; assay type: functional
Mus musculus [19] = experiment: In vivo antinociceptive activity through injecting 2 mg/kg ip phenylquinone, activity calculated by total number of abdominal-stretches per group counted over a 1 min period; Inactive; assay type: functional, organism-based; set-up: dose 2 mg/kg

Chain of Kappa-type opioid receptor (Homo sapiens) (P41145 whole entry): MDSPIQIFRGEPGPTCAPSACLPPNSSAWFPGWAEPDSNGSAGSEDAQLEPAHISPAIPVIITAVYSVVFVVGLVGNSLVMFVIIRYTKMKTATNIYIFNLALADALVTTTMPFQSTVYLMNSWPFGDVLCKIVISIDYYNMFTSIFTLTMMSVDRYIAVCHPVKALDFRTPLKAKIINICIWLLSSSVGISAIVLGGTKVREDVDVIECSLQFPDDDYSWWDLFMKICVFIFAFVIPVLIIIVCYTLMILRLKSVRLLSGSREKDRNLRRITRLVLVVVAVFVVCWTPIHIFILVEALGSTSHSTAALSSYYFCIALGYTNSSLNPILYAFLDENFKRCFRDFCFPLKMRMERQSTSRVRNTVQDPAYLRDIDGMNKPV
Chain of Mu-type opioid receptor (P33535 whole entry): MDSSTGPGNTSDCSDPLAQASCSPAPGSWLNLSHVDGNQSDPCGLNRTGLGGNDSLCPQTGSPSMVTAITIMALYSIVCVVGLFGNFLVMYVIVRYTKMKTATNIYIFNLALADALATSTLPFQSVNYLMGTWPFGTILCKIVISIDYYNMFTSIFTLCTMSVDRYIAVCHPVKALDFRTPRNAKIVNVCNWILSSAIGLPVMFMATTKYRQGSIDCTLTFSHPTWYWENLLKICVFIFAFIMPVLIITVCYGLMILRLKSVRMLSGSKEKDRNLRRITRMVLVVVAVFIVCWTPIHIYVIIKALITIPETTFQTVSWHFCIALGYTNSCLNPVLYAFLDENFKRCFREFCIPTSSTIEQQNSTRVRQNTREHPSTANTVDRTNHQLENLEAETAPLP
Chain of Mu-type opioid receptor (Rattus norvegicus) (P33535 whole entry): as above
Chain of Mu-type opioid receptor (Homo sapiens) (P35372 whole entry): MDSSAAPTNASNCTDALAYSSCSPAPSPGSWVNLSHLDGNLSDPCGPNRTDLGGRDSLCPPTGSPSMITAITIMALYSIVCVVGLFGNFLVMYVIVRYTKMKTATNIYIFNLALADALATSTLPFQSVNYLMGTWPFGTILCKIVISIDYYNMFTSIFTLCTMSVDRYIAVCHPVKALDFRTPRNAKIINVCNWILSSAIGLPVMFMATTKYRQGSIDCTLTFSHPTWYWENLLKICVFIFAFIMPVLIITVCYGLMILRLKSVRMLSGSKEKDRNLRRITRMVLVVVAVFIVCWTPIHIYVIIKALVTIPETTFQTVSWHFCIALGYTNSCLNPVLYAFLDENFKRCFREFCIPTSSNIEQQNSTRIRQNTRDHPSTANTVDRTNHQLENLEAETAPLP

Structure (SMILES) | Activity (Mus musculus [3]) | Ratio [4] | Ratio (Cercopithecidae) | Ratio (Cavia porcellus [5]) | Ki (Glutamate NMDA receptor) [nM] | Ratio (Cavia porcellus [7]) | Ratio [8] | Activity (Mus musculus [9]) | Ki (Mu-type opioid receptor) [nM] | Activity (Mus musculus [10]) | Activity (Mus musculus [12]) | Activity (Mus musculus [14]) | Activity (Mus musculus [15]) | other results
CCCCCCN1CC[C@]2(C)c3cc(O)ccc3CC1[C@@H]2C | inactive | 712 | 8.3 | 8.5 | 3350 | 84 | 1.1 | 0.13 | 4.7 | 1.1 | 2.4 |  |  | Ratio [1]: 169; Ratio [2]: 8.2; Ratio [6]: 53; Ratio [11]: 2.2
CCCCCCCCN1CC[C@]2(C)c3cc(O)ccc3CC1[C@H]2C | inactive | 1.5 | 0.3 | 0.005 | 786 | 281 | 14.2 | 7.8 | 522 |  | 11.1 |  |  | inhibition in vivo at 30 mg/kg (Mus musculus [13]): 14%
C[C@@H]1C2Cc3ccc(O)cc3[C@]1(C)CCN2C |  | 0.008 | 0.3 | 0.3 | 41 | 0.03 | 2.7 |  | 4970 |  |  | inactive | inactive | Inhibition (Mus musculus [16]): 43%
C[C@H]1C2Cc3ccc(O)cc3[C@@]1(C)CCN2 | inactive |  |  |  | 197 |  |  |  | 23 |  |  |  |  | inhibition in vivo at 30 mg/kg (Mus musculus [17]): 38%; inhibition in vivo at 30 mg/kg (Mus musculus [13]): 13%; Inhibition (Mus musculus [18]): 66%
CCN1CC[C@@]2(C)c3cc(O)ccc3CC1[C@H]2C | inactive |  |  |  | 130 |  |  | 33.5 | 10000 |  |  | inactive | inactive | 
CCCCCCCCCN1CC[C@]2(C)c3cc(O)ccc3CC1[C@H]2C | inactive | 3 | 0.1 | 0.009 | 4150 | 346 | 18 |  | 1380 |  |  | inactive | inactive | Activity (Mus musculus [19]): inactive
CCCCCN1CC[C@]2(C)c3cc(O)ccc3CC1[C@@H]2C | inactive |  |  |  | 2470 |  |  | 0.2 | 16 | 1.3 | 2.4 |  |  | 
CCCCCN1CC[C@@]2(C)c3cc(O)ccc3CC1[C@H]2C | inactive |  |  |  | 1700 |  |  | 1 | 1740 | 20.4 | 38 |  |  | 
CCCCCCCCCCN1CC[C@]2(C)c3cc(O)ccc3CC1[C@H]2C | inactive | 0.9 | 0.2 | 0.02 | 4190 | 61 | 3 |  | 4620 |  |  | inactive | inactive | Activity (Mus musculus [19]): inactive
CCCCCCCN1CC[C@]2(C)c3cc(O)ccc3CC1[C@@H]2C | inactive | 640 | 3.1 | 5.6 | 5630 | 115 | 1.2 | 0.13 | 8.8 | 1.7 | 2.4 |  |  | Ratio [1]: 28; Ratio [2]: 9.6; Ratio [6]: 23; Ratio [11]: 0.5
CCCCCCCCCN1CC[C@]2(C)c3cc(O)ccc3CC1[C@@H]2C | inactive | 41 | 1.2 | 0.2 | 6170 | 193 | 3.9 |  | 151 |  |  | inactive | inactive | Ratio [1]: 9.1; Ratio [2]: 0.7; Ratio [6]: 3.2; Activity (Mus musculus [19]): inactive; Ratio [11]: 0.7

— ChEMBL document CHEMBL1127360, “Antipodal alpha-N-(methyl through decyl)-N-normetazocines (5,9 alpha-dimethyl-2'-hydroxy-6,7-benzomorphans): in vitro and in vivo properties” (J Med Chem, 1994)
